Data as given in patent publication US20120190669A1, “OXINDOLE COMPOUNDS” (CYLENE PHARMACEUTICALS, INC., priority 2008, published 2012).
Read-outs that look alike come from different tables or passages of the source.

Experiments:
[1] = tested on: PC-3 human prostatic cancer cells; assay: Alamar Blue cell proliferation assay, PC3; assay type: cell-based
Procedure: (§1) A representative cell-proliferation assay protocol using Alamar Blue dye (stored at 4° C., use 20 ul per well) is described hereafter.
(§2) 96-Well Plate Setup and Compound Treatment
(§3) a. Split and trypsinize cells.
(§4) b. Count cells using hemocytometer.
(§5) c. Plate 4,000-5,000 cells per well in 100 μl of medium and seed into a 96-well plate according to the following plate layout. Add cell culture medium only to wells B10 to B12. Wells B1 to B9 have cells but no compound added.
(§6) d. Add 100 μl of 2× drug dilution to each well in a concentration shown in the plate layout above. At the same time, add 100 μl of media into the control wells (wells 1310 to B12). Total volume is 200 μl/well.
(§7) e. Incubate four (4) days at 37° C., 5% CO2 in a humidified incubator.
(§8) f. Add 20 μl Alamar Blue reagent to each well.
(§9) g. Incubate for four (4) hours at 37° C., 5% CO2 in a humidified incubator.
(§10) h. Record fluorescence at an excitation wavelength of 544 nm and emission wavelength of 590 nm using a microplate reader.
(§11) In the assays, cells are cultured with a test compound for approximately four days, the dye is then added to the cells and fluorescence of […] dye is detected after approximately four hours. Different types of cells can be utilized in the assays (e.g., HCT-116 human colorectal carcinoma cells, PC-3 human prostatic cancer cells and MiaPaca human pancreatic carcinoma cells).

[2] = tested on: MiaPaca human pancreatic carcinoma cells; assay: Alamar Blue cell proliferation assay, MiaPaCa; assay type: cell-based
Procedure: as §1, §2, §3, §4, §5, §6, §7, §8, §9, §10, §11

[3] = tested on: MV-4-11; assay: Alamar Blue cell proliferation assay, MV-4-11; assay type: cell-based; settings: Homo sapiens
Procedure: as §1, §2, §3, §4, §5, §6, §7, §8, §9, §10, §11

[4] = tested on: MDAMB-231; assay: Alamar Blue cell proliferation assay, MDAMB-231; assay type: cell-based; settings: Homo sapiens, MDA-MB-231, Table 3, read-out: AB: MDAMB-231
Procedure: as §1, §2, §3, §4, §5, §6, §7, §8, §9, §10, §11

[5] = tested on: K-562; assay: Alamar Blue cell proliferation assay, K-562; assay type: cell-based; settings: Homo sapiens
Procedure: as §1, §2, §3, §4, §5, §6, §7, §8, §9, §10, §11

[6] = target: recombinant PIM-1 (Homo sapiens, UniProt P11309); assay: PIM-1 kinase assay (radiometric, 15 uM ATP, DMSO 4%); assay type: biochemical; settings: for inhibition at 0.5 µM: Table 5, compound at 500 nM, read-out: PIM1: % inh 500 nM
[7] = tested on: HCT-116 human colorectal carcinoma cells; assay: Alamar Blue cell proliferation assay, HCT-116; assay type: cell-based
Procedure: as §1, §2, §3, §4, §5, §6, §7, §8, §9, §10, §11

[8] = tested on: phospho BAD; assay: phospho BAD cell-based data; settings: Table 4
[9] = tested on: phospho FLT3; assay: phospho FLT3 cell-based data; settings: Table 4
[10] = MIA PaCa-2, Table 3, read-out: AB: MiaPaCa
[11] = MV4-11, Table 3, read-out: AB: MV-4-11
[12] = K562, Table 3, read-out: AB: K-562
[13] = Table 5, read-out: AB: PC3 IC50
[14] = MIA PaCa-2, Table 5, read-out: AB: MiaPaCa IC50
[15] = MV4-11, Table 5, read-out: AB: MV-4-11 IC50
[16] = K562, Table 5, read-out: AB: K-562 IC50
[17] = Table 5, read-out: AB: HCT-116 IC50
[18] = Table 3, DMSO 4%, read-out: PIM1: IC50 (DMSO 4%)
[19] = MV4-11, Table 4, read-out: AB: MV-4-11
[20] = Table 4, 15 um ATP, read-out: PIM1: IC50 (15 um ATP)
[21] = K562, Table 4, read-out: AB: K-562
[22] = MIA PaCa-2, Table 4, read-out: AB: MiaPaCa

Chain of recombinant PIM-1 (P11309 whole entry): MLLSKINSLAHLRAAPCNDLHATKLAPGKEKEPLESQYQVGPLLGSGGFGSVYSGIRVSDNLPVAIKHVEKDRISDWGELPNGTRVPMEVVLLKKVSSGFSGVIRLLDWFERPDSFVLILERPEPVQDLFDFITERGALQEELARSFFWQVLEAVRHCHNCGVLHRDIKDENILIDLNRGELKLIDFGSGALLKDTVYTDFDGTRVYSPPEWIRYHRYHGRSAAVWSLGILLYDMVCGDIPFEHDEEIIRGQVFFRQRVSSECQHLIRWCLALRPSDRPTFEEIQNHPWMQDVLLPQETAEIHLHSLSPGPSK

| SMILES | IC50 ([1]; Table 3, read-out: AB: PC3) [nM] | IC50 [2, 10] [nM] | IC50 [4] [nM] | IC50 [5, 12] [nM] | IC50 [1, 13] [nM] | IC50 [2, 14] [nM] | IC50 [3, 15] [nM] | inhibition at 0.5 µM [6] [%] | IC50 [5, 16] [nM] | IC50 [7, 17] [nM] | also measured |
| --- | --- | --- | --- | --- | --- | --- | --- | --- | --- | --- | --- |
| CC/C(=C1\C(=O)Nc2ccc(Cl)cc21)c1ccc(-c2cccc(C(=O)N3CCCN(C)CC3)c2)o1 | > 30000 | 302 | > 10000 | 153 |  |  |  |  |  |  | IC50 [3, 11]: 109 nM |
| CC(=O)Nc1cccc(-c2ccc(/C=C3\C(=O)Nc4ccc(Cl)cc43)o2)c1 | 2680 | > 10000 | > 10000 | > 10000 |  |  |  |  |  |  | IC50 [3, 11]: 748 nM; IC50 [6, 18]: < 1000 nM |
| CCN1CCCC1CNC(=O)c1cccc(-c2coc(/C=C3/C(=O)Nc4ccc(F)cc43)c2)c1 (centres unmarked) [drawing 250] |  |  |  |  | > 10000 | > 10000 | 485 | 17.1 | 941 | 5230 |  |
| Nc1cccc(-c2ccc(/C=C3/C(=O)Nc4ccccc43)o2)c1 [drawing 234] |  |  |  |  |  |  |  |  |  |  | IC50 [3, 19]: 2440 nM; IC50 [6, 20]: 992 nM; IC50 [5, 21]: 5130 nM |
| O=C1Nc2ccc(Cl)cc2/C1=C/c1ccc(-c2ccc3cc(O)ccc3c2)o1 | 12000 | > 10000 | > 10000 | > 10000 |  |  |  |  |  |  | IC50 [3, 11]: 189 nM; IC50 [6, 18]: < 1000 nM |
| NC(=O)c1cccc(-c2ccc(/C=C3\C(=O)Nc4ccc(Cl)cc43)o2)c1 | > 30000 | > 10000 | > 10000 | > 10000 |  |  |  |  |  |  | IC50 [3, 11]: 1910 nM; IC50 [6, 18]: < 1000 nM |
| O=C1Nc2ccc(Cl)cc2/C1=C\c1ccc(-c2cccc(C(=O)NCCCn3ccnc3)c2)o1 [drawing 233] |  |  |  |  |  |  |  |  |  |  | IC50 [8]: 1860 nM; IC50 [9]: > 10000 nM; IC50 [2, 22]: 233 nM; IC50 [3, 19]: 67 nM; IC50 [6, 20]: 376 nM; IC50 [5, 21]: 288 nM; IC50 ([7]; Table 4, read-out: AB: HCT-116): 314 nM |
| CN1CCCN(C(=O)c2cccc(-c3ccc(CC4C(=O)Nc5ccc(Cl)cc54)o3)c2)CC1 (centres unmarked) [drawing 213] |  |  |  |  |  |  |  |  |  |  | IC50 ([1]; Table 2, read-out: AB: PC3): 15400 nM; IC50 ([2]; MIA PaCa-2, Table 2, read-out: AB: MiaPaCa): 559 nM; IC50 ([6]; Table 2, read-out: PIM1: IC50): < 100 nM; IC50 ([5]; K562, Table 2, read-out: AB: K-562): 240 nM |
| O=C1Nc2ccc(Cl)cc2/C1=C\c1ccc(-c2cccc(C(=O)N3CCCNCC3)c2)o1 | 9620 | 815 | 3150 | 342 |  |  |  |  |  |  |  |
| CN(C)C1CCN(C(=O)c2cccc(-c3coc(/C=C4/C(=O)Nc5ccc(F)cc54)c3)c2)CC1 [drawing 256] |  |  |  |  | 7530 | > 10000 | 516 | 10.8 | 3700 | 3850 |  |
| CN(C)CCNC(=O)c1cccc(-c2ccc(/C=C3/C(=O)Nc4ccc(Cl)cc43)o2)c1 [drawing 232] |  |  |  |  |  |  |  |  |  |  | IC50 [8]: 444 nM; IC50 [9]: 5300 nM; IC50 [2, 22]: 1940 nM; IC50 [3, 19]: 2990 nM; IC50 [6, 20]: 289 nM; IC50 [5, 21]: 367 nM; IC50 ([7]; Table 4, read-out: AB: HCT-116): 1190 nM |

Second part, led by results:

| IC50 ([1]; Table 3, read-out: AB: PC3) [nM] | IC50 [2, 10] [nM] | IC50 [4] [nM] | IC50 [5, 12] [nM] | IC50 [1, 13] [nM] | IC50 [2, 14] [nM] | IC50 [3, 15] [nM] | inhibition at 0.5 µM [6] [%] | IC50 [5, 16] [nM] | IC50 [7, 17] [nM] | SMILES | also measured |
| --- | --- | --- | --- | --- | --- | --- | --- | --- | --- | --- | --- |
|  |  |  |  | > 10000 | > 10000 | 1380 | 12.7 | > 10000 | > 10000 | Cn1cncc1CNC(=O)c1cccc(-c2coc(/C=C3/C(=O)Nc4ccc(F)cc43)c2)c1 [drawing 252] |  |
|  |  |  |  |  | > 10000 | 1570 | -19.1 | > 10000 | > 10000 | O=C1Nc2ccc(F)cc2/C1=C\c1cc(-c2cccc(C(=O)NCc3ccncc3)c2)co1 [drawing 255] |  |
|  |  |  |  | 1890 | 4340 | > 10000 | -18.4 | 1310 | 2330 | COC(=O)c1cccc(-c2coc(/C=C3/C(=O)Nc4ccccc43)c2)c1 |  |
|  |  |  |  | > 10000 | > 10000 | 998 | -14.6 | > 10000 | > 10000 | Cn1cncc1CNC(=O)c1cccc(-c2coc(/C=C3/C(=O)Nc4ccccc43)c2)c1 |  |
|  |  |  |  | > 10000 | > 10000 | 168 | -4.22 | > 10000 | > 10000 | O=C1Nc2ccccc2/C1=C\c1cc(-c2cccc(C(=O)NCc3ccncc3)c2)co1 |  |
